Assay: mn = molality of the nth substance listed, in mol/kg
Conditions: 101.33 kPa, Liquid; for speed of sound: Frequency=2 MHz, Linear variable-path acoustic interferometer; for mass density: Pycnometric method

O=C([O-])c1ccccc1O.[Na+] [sodium salicylate] + O
Conditions	mass density, 288.15 K [kg/m3]	mass density, 298.15 K [kg/m3]	mass density, 308.15 K [kg/m3]	speed of sound, 288.15 K [m/s]	speed of sound, 298.15 K [m/s]	speed of sound, 308.15 K [m/s]
m1 = 0.01	–	–	994.69	–	–	1520.8
m1 = 0.0101	999.8	997.73	–	1466.8	1497.6	–
m1 = 0.0221	1000.62	998.51	995.46	1467.9	1498.8	1521.9
m1 = 0.0307	1001.19	999.07	–	1468.7	1499.6	–
m1 = 0.0333	–	–	996.16	–	–	1523
m1 = 0.04	–	–	996.59	–	–	1523.6
m1 = 0.0448	1002.19	1000	–	1470	1501	–
m1 = 0.0451	–	–	996.9	–	–	1524.2
m1 = 0.0501	1002.51	1000.34	997.24	1470.5	1501.5	1524.6
m1 = 0.0546	1002.85	1000.67	–	1470.8	1501.9	–
m1 = 0.0572	–	–	997.65	–	–	1525.3
m1 = 0.06	1003.2	1001.01	–	1471.4	1502.4	–
m1 = 0.0667	1003.66	–	–	1472	–	–
m1 = 0.0702	–	–	998.5	–	–	1526.5
m1 = 0.0704	1003.92	1001.66	–	1472.3	1503.5	–
m1 = 0.0802	1004.55	1002.35	999.1	1473.2	1504.4	1527.5
m1 = 0.0848	1004.87	1002.59	–	1473.6	1504.9	–
m1 = 0.0857	–	–	999.47	–	–	1528
m1 = 0.0906	1005.23	–	999.8	1474.2	–	1528.4
m1 = 0.0907	–	1002.99	–	–	1505.4	–
m1 = 0.0951	–	1003.26	1000.07	–	1505.8	1528.9
m1 = 0.1018	–	1003.68	–	–	1506.5	–
m1 = 0.1019	1006	–	–	1475.2	–	–
m1 = 0.1023	–	–	1000.5	–	–	1529.6

— the NIST ThermoML archive (doi:10.1016/j.jct.2017.08.002)
